Consider 1 substance from patent publication US20070270382A1, “Composition for Protecting Skin” (priority 2003, published 2007).

The test system of assay [1] is skin wrinkles. In words: Skin wrinkle improving effect: wrinkles adjacent to eyes observed using a Charm View. The class given is in vivo, human. To be noted: four persons having a weak skin barrier function; before and after taking sphingomyelin. How it is done: A capsule containing sphingomyelin 50 mg, phosphatidylserine 10 mg and gamma-linoleic acid 12.5 mg was used as a test material. Two capsules per one time were taken two times (morning and evening) a day. That is, four capsules were taken per a day and a medication period was three weeks. […] Four persons having a weak skin barrier function of the 21 examinees were selected and their skin states were measured before and after taking sphingomyelin.

For assay [2], the system named is skin barrier. Kind of assay: Skin barrier function improving effect: TEWL repair after tape stripping, before and after taking sphingomyelin. The class given is in vivo, human. To be noted: for difference in TEWL, taking vs not-taking sphingomyelin (in words): 2 and 4 days. The method, then: In this Example, a person's sebum film was artificially injured to increase an amount of water loss. After that, it was confirmed that there was a difference of repair degrees of water loss before and after taking sphingomyelin. It was also confirmed that how much skin wrinkles due to the water loss were improved by taking sphingomyelin. A capsule containing sphingomyelin 50 mg, phosphatidylserine 10 mg and gamma-linoleic acid 12.5 mg was used as a test material. Two capsules per one time were taken two times (morning and evening) a day. That is, four capsules were taken per a day and a medication period was three weeks. Tests were carried out for 18 males and 3 females and the testing method was as follows. An amount of water loss of skin was measured for an inner region of an arm using a TEWL meter TM210. A skin wound was induced by stripping off corneum with a tape many times and increasing a TEWL value (normally, around 6˜10) to 30 or more. In other words, after inducing an injury of a skin barrier using a tape, repair aspects of TEWL values in the injured region before and after taking sphingomyelin were compared and thus a skin barrier restoring effect of sphingomyeling was confirmed. Skin barrier function in a normal state was checked by measuring TEWL in a forearm from 21 persons. A TEWL value was increased to 30 or more after tape stripping and then TEWL was measured every other day. TEWL in a normal state was measured together with a measurement of TEWL in an injured region because TEWL in a normal state can be different according to conditions of temperature, humidity and weather, etc. Meanwhile, a same test was carried out to measure a medication effect of sphingomyelin and TEWL of skin was measured while taking sphingomyelin two times a day.

Assay [3] has as its system hairless mice. In words: Photoaging inhibitory effect of sphingomyelin (animal test, UV irradiation). The class given is in vivo.

On to Sphingomyelin, for which the “wrinkle improving effect (FIG. 14)” value in assay [1] is given as “had a wrinkle improving effect”. Further, the “difference in TEWL, taking vs not-taking sphingomyelin (in words)” value in assay [2] (21 persons (Table 3)) and in assay [2] (weak skin barrier function (Table 5)) was “no significant difference” each time. For the same substance, the “difference of TEWL decreases, taking vs not-taking sphingomyelin (in words)” value in assay [2] (6 days, weak skin barrier function (Table 5)) is reported as “significant difference of TEWL decreases”. Further, the “% TEWL, taking sphingomyelin” value in assay [2] (day 0, 21 persons, capsule with sphingomyelin 50 mg, phosphatidylserine 10 mg, gamma-linoleic acid 12.5 mg, four capsules per day) came to 100 % TEWL; in assay [2] (day 0, persons with weak skin barrier function (high TEWL in normal region)), 100 % TEWL; in assay [2] (day 0, six examinees with relatively high decrease rate of TEWL) it was 100 % TEWL; in assay [2] (day 2, 21 persons, oral capsules) it was 43.2 ± 11.5 % TEWL; in assay [2] (day 2, persons with weak skin barrier function), 36.9 ± 18.9 % TEWL; in assay [2] (day 2, six examinees with relatively high decrease rate of TEWL) it was 45.7 ± 10.7 % TEWL. Also, the “% TEWL, taking sphingomyelin” value in assay [2] (day 4, 21 persons, oral capsules) amounted to 23.1 ± 8.1 % TEWL; in assay [2] (day 4, persons with weak skin barrier function) it was 19.8 ± 8 % TEWL; in assay [2] (day 4, six examinees with relatively high decrease rate of TEWL), 23.7 ± 7.5 % TEWL; in assay [2] (day 6, 21 persons, oral capsules) it was 14.8 ± 7 % TEWL; in assay [2] (day 6, persons with weak skin barrier function), 9.7 ± 5.8 % TEWL; in assay [2] (day 6, six examinees with relatively high decrease rate of TEWL) it was 7.4 ± 4.3 % TEWL. The “difference in TEWL decrease, taking vs not-taking sphingomyelin (in words)” value in assay [2] (six days, 21 persons (FIG. 11), paired t-test) is “significant difference in a TEWL decrease”. For the same substance, the “state of skin (photographs, FIGS. 2 to 4)” value in assay [3] (UV irradiation+SM application vs UV only or UV+Vehicle, after completion of the test) was “the skin was extremely injured, compared to the case that the substrate containing sphingomyelin was applied after UV irradiation”. Moreover, the “skin barrier function (FIG. 1)” value was “the skin barrier was not easily damaged and remained in a level of the early stage of the test” in assay [3] (UV irradiation+SM application, 0.5% in 1,3-butyleneglycol/distilled water/ethanol 5:3:2, UV three times per week for three months, vs UV only or UV+Vehicle); “skin barrier protecting effect of sphingomyelin against ultraviolet was exhibited” in assay [3] (UV irradiation+SM oral administration). In assay [3] (sphingomyelin applied after UV irradiation vs only UV irradiation), the “skin histological test (FIG. 5): epidermis and dermis” value was “the epidermis and dermis thereof were similar to those of at the early stage of the test”.
